# Target: SARS-CoV-2 Papain-Like Protease (PLpro) (Severe acute respiratory syndrome coronavirus 2 (2019-nCoV) (SARS-CoV-2), UniProt P0DTD1)
# Assay: biochemical
# Conditions: PLpro 6.25 nM, substrate 25 μM, 60 min at 25° C.; for more potent compounds PLpro 1 nM, 120 min; read-out: PLpro IC50
row,SMILES,IC50 [nM]
1,"Cc1ccc(NC2CNC2)cc1C(=O)NC(C)c1cccc2c1OCCO2 (stereo not shown) [Compound 168, 5-(Azetidin-3-ylamino)-N-(1-(2,3-dihydrobenzo[b][1,4]dioxin-5-yl)ethyl)-2-methylbenzamide]",> 5000

# Same assay, conditions: PLpro enzymatic fluorescence assay; class symbols; read-out: PLpro IC50
row,SMILES,IC50 [nM]
1,"CC#Cc1cc(C2(NC(=O)c3cc(OC[C@@H]4CCN4C)ccc3C)CC2)c2cccnc2c1 [Compound 721, (S)-2-Methyl-5-((1-methylazetidin-2-yl)methoxy)-N-(1-(7-(prop-1-yn-1-yl)quinolin-5-yl)cyclopropyl)benzamide]",< 100
2,"COc1cc(C2(NC(=O)c3cc(OC[C@@H]4CCN4C)ccc3F)CC2)c2ccc(C)nc2c1 [Compound 791, (S)-2-Fluoro-N-(1-(7-methoxy-2-methylquinolin-5-yl)cyclopropyl)-5-((1-methylazetidin-2-yl)methoxy)benzamide]",100 to 1000
3,"COc1cc(C2(NC(=O)c3cc(OC[C@H]4C[C@H](F)CN4)ccc3C)CC2)c2ccccc2c1 [Compound 510, 5-(((2R,4S)-4-Fluoropyrrolidin-2-yl)methoxy)-N-(1-(3-methoxynaphthalen-1-yl)cyclopropyl)-2-methylbenzamide]",< 100
4,"Cc1ccc(OC[C@@H]2CCN2C)cc1C(=O)NC1(c2cc(-c3ccco3)cc3ncccc23)CC1 (stereo in doubt) [Compound 604, N-(1-(7-(Furan-2-yl)quinolin-5-yl)cyclopropyl)-2-methyl-5-((1-methylazetidin-2-yl)methoxy)benzamide]",< 100
5,"Cc1nnc(-c2cc(C3(NC(=O)c4cc(OC[C@@H]5CCN5)ccc4C)CC3)c3cccnc3c2)s1 [Compound 673, (S)-5-(Azetidin-2-ylmethoxy)-2-methyl-N-(1-(7-(5-methyl-1,3,4-thiadiazol-2-yl)quinolin-5-yl)cyclopropyl)benzamide]",< 100
6,"COc1cc(C2(NC(=O)c3cc(OC[C@@H]4CCN4C)ccc3C)CC2)c2ccc(Cl)nc2c1 [Compound 617, (S)-N-(1-(2-Chloro-7-methoxyquinolin-5-yl)cyclopropyl)-2-methyl-5-((1-methylazetidin-2-yl)methoxy)benzamide]",< 100
7,"COc1cc(C2(NC(=O)c3cc(OC[C@H]4CCN4C)ccc3C)CC2)c2cccnc2c1 [Compound 558, (R)-N-(1-(7-Methoxyquinolin-5-yl)cyclopropyl)-2-methyl-5-((1-methylazetidin-2-yl)methoxy)benzamide]",< 100
8,"CN[C@H](C)COc1ccc(C)c(C(=O)NC2(c3cc(OC)cc4ncccc34)CC2)c1 [Compound 573, (R)-N-(1-(7-Methoxyquinolin-5-yl)cyclopropyl)-2-methyl-5-(2-(methylamino)propoxy)benzamide]",< 100
9,"Cc1ccc(OC[C@@H]2CCN2C)cc1C(=O)NC1(c2cc(Oc3ccccc3)cc3ncccc23)CC1 [Compound 592, (S)-2-Methyl-5-((1-methylazetidin-2-yl)methoxy)-N-(1-(7-phenoxyquinolin-5-yl)cyclopropyl)benzamide]",< 100
10,"Cc1ccc2c(C3(NC(=O)c4cc(OC[C@@H]5CCN5C)ccc4C)CC3)cc(NS(C)(=O)=O)cc2n1 [Compound 825, (S)-2-Methyl-N-(1-(2-methyl-7-(methylsulfonamido)quinolin-5-yl)cyclopropyl)-5-((1-methylazetidin-2-yl)methoxy)benzamide]",< 100
11,"Cc1ccc(N2CCC(N)C2)cc1C(=O)NC1(c2cccc3ccccc23)CC1 (stereo not shown) [Compound 485, 5-(3-Aminopyrrolidin-1-yl)-2-methyl-N-(1-(naphthalen-1-yl)cyclopropyl)benzamide]",< 100
12,"CC(=O)c1cc(C2(NC(=O)c3cc(OC[C@@H]4CCN4C)ccc3C)CC2)c2cccnc2c1 [Compound 638, (S)-N-(1-(7-Acetylquinolin-5-yl)cyclopropyl)-2-methyl-5-((1-methylazetidin-2-yl)methoxy)benzamide]",< 100
13,"C=Cc1cc(C2(NC(=O)c3cc(OC[C@@H]4CCN4C)ccc3C)CC2)c2cccnc2c1 [Compound 570, (S)-2-Methyl-5-((1-methylazetidin-2-yl)methoxy)-N-(1-(7-vinylquinolin-5-yl)cyclopropyl)benzamide]",< 100
14,"Cc1ccc(OC[C@@H]2CCN2C)cc1C(=O)NC1(c2cc(-c3ccc(C(C)O)s3)cc3ncccc23)CC1 (stereo partly drawn) [Compound 762, N-(1-(7-(5-(1-Hydroxyethyl)thiophen-2-yl)quinolin-5-yl)cyclopropyl)-2-methyl-5-(((S)-1-methylazetidin-2-yl)methoxy)benzamide]",< 100
15,"Cc1ccc(OC[C@@H]2CCN2C)cc1C(=O)NC1(c2cc(-c3ccc(Cl)s3)cc3ncccc23)CC1 [Compound 623, (S)-N-(1-(7-(5-Chlorothiophen-2-yl)quinolin-5-yl)cyclopropyl)-2-methyl-5-((1-methylazetidin-2-yl)methoxy)benzamide]",< 100

# Same assay, conditions: SARS-CoV-2 PLpro enzymatic fluorescence assay; read-out: PLpro IC50
row,SMILES,IC50 [nM]
1,"Cc1ccc(OCCN(C)C)cc1C(=O)NC1(c2cccc3ccsc23)CC1 [Compound 368, N-(1-(Benzo[b]thiophen-7-yl)cyclopropyl)-5-(2-(dimethylamino)ethoxy)-2-methylbenzamide]",100 to 1000
2,"CCS(=O)(=O)N1CCC([C@@H](C)NC(=O)c2cc(NC3CN(C(=O)OC(C)(C)C)C3)ccc2C)CC1 [Compound 161, tert-Butyl (R)-3-((3-((1-(1-(ethylsulfonyl)piperidin-4-yl)ethyl)carbamoyl)-4-methylphenyl)amino)azetidine-1-carboxylate]",> 5000
3,"Cc1ccc(OCC2CCCN2)cc1C(=O)NC1(c2cccc3ccccc23)CC1 (stereo not shown) [Compound 263, 2-Methyl-N-(1-(naphthalen-1-yl)cyclopropyl)-5-(pyrrolidin-2-ylmethoxy)benzamide]",< 100
4,"Cc1ccc(OCCNCC(F)(F)F)cc1C(=O)NC1(c2cccc3ccccc23)CC1 [Compound 247, 2-Methyl-N-(1-(naphthalen-1-yl)cyclopropyl)-5-(2-((2,2,2-trifluoroethyl)amino)ethoxy)benzamide]",100 to 1000
5,"Cc1ccc(N2CCN(C)CC2)cc1C(=O)NC1(c2cccc3ccccc23)CC1 [Compound 418, 2-Methyl-5-(4-methylpiperazin-1-yl)-N-(1-(naphthalen-1-yl)cyclopropyl)benzamide]",< 100
6,"Cc1ccc(OC2CCCNC2)cc1C(=O)NC1(c2cccc3ccccc23)CC1 (stereo not shown) [Compound 268, 2-Methyl-N-(1-(naphthalen-1-yl)cyclopropyl)-5-(piperidin-3-yloxy)benzamide]",100 to 1000
7,"Cc1cc2cc(-c3ccccc3)[nH]c2cc1C(=O)NC1(c2cccc3ccccc23)CC1 [Compound 226, 5-Methyl-N-(1-(naphthalen-1-yl)cyclopropyl)-2-phenyl-1H-indole-6-carboxamide]",> 5000
8,"Cc1ccc(N)cc1C(=O)NC(CF)c1cccc2ccccc12 (stereo not shown) [Compound 200, 5-Amino-N-(2-fluoro-1-(naphthalen-1-yl)ethyl)-2-methylbenzamide]",1000 to 5000
9,"Cc1ccc(OCCN(C)C)cc1C(=O)NC1(c2ccccc2Cl)CC1 [Compound 326, N-(1-(2-chlorophenyl)cyclopropyl)-5-(2-(dimethylamino)ethoxy)-2-methylbenzamide]",1000 to 5000
10,"Cc1cc(C2(NC(=O)c3cc(OCC(C)N)ccc3C)CC2)c2ccccc2c1 (stereo not shown) [Compound 481, 5-(2-Aminopropoxy)-2-methyl-N-(1-(3-methylnaphthalen-1-yl)cyclopropyl)benzamide]",< 100
11,"Cc1cc2nc(CN)[nH]c2cc1C(=O)NC1(c2cccc3ccccc23)CC1 [Compound 280, 2-(Aminomethyl)-5-methyl-N-(1-(naphthalen-1-yl)cyclopropyl)-1H-benzo[d]imidazole-6-carboxamide]",100 to 1000
12,"Cc1ccc(OCCN2CCCCC2)cc1C(=O)NC1(c2cccc3ccccc23)CC1 [Compound 254, 2-Methyl-N-(1-(naphthalen-1-yl)cyclopropyl)-5-(2-(piperidin-1-yl)ethoxy)benzamide]",< 100
13,"CNCCOc1ccc(C)c(C(=O)NC2(c3cccc4ncccc34)CC2)c1 [Compound 385, 2-Methyl-5-(2-(methylamino)ethoxy)-N-(1-(quinolin-5-yl)cyclopropyl)benzamide]",< 100
14,"Cc1cc2ccn(C)c2cc1C(=O)NC1(c2cccc3ccccc23)CC1 [Compound 201, 1,5-Dimethyl-N-(1-(naphthalen-1-yl)cyclopropyl)-1H-indole-6-carboxamide]",100 to 1000
15,"Cc1cc(N)c(OCC2CCN2C)cc1C(=O)NC1(c2cccc3ccccc23)CC1 (stereo not shown) [Compound 487, 4-Amino-2-methyl-5-((1-methylazetidin-2-yl)methoxy)-N-(1-(naphthalen-1-yl)cyclopropyl)benzamide]",< 100
16,"Cc1ccc(OCCN(C)C)cc1NC(=O)C1(c2cccc3ccccc23)CC1 [Compound 580, N-(5-(2-(Dimethylamino)ethoxy)-2-methylphenyl)-1-(naphthalen-1-yl)cyclopropane-1-carboxamide]",> 5000
17,"CC(c1cccc2cnccc12)N1CCC(C(=O)NCc2cccc(F)c2)CC1 (stereo not shown) [Compound 522, N-(3-Fluorobenzyl)-1-(1-(isoquinolin-5-yl)ethyl)piperidine-4-carboxamide]",> 5000
18,"CN[C@@H](C)COc1ccc(C)c(C(=O)NC2(c3cc(OC)cc4ncccc34)CC2)c1 [Compound 560, (S)-N-(1-(7-Methoxyquinolin-5-yl)cyclopropyl)-2-methyl-5-(2-(methylamino)propoxy)benzamide]",< 100
19,"Cc1cc2cc(-c3ccccn3)[nH]c2cc1C(=O)NC1(c2cccc3ccccc23)CC1 [Compound 234, 5-Methyl-N-(1-(naphthalen-1-yl)cyclopropyl)-2-(pyridin-2-yl)-1H-indole-6-carboxamide]",100 to 1000
20,"Cc1ccc(OCCN(C)C)c(F)c1C(=O)NC1(c2cccc3ccccc23)CC1 [Compound 311, 3-(2-(Dimethylamino)ethoxy)-2-fluoro-6-methyl-N-(1-(naphthalen-1-yl)cyclopropyl)benzamide]",100 to 1000
21,"Cc1cc2c(cc1C(=O)NC1(c3cccc4ccccc34)CC1)NCC2(C)C [Compound 262, 3,3,5-Trimethyl-N-(1-(naphthalen-1-yl)cyclopropyl)indoline-6-carboxamide]",100 to 1000
